Data on 1 molecule can be found in PMC3093745 (ACS Medicinal Chemistry Letters, 2011).

For one assay, the target named is HDAC1 (Homo sapiens, UniProt Q13547). In words: HDAC1 in vitro homogeneous fluorogenic deacetylase assay. It is filed as biochemical. Particulars: read-out: IC50 HDAC1; SD in parentheses; duplicate; substrate MAZ1600 21 µM.
The next assay has as its target HDAC2 (Homo sapiens, UniProt Q92769). In words: HDAC2 in vitro homogeneous fluorogenic deacetylase assay. It is filed as biochemical. Particulars: read-out: IC50 HDAC2; SD in parentheses; duplicate; substrate MAZ1600 22 µM.
The target in a further assay is HDAC3 (Homo sapiens, UniProt O15379). In words: HDAC3 in vitro homogeneous fluorogenic deacetylase assay. Particulars: read-out: IC50 HDAC3; SD in parentheses; duplicate; substrate MAZ1600 9 µM. It is filed as biochemical.
Sequence of HDAC3 (O15379 whole entry): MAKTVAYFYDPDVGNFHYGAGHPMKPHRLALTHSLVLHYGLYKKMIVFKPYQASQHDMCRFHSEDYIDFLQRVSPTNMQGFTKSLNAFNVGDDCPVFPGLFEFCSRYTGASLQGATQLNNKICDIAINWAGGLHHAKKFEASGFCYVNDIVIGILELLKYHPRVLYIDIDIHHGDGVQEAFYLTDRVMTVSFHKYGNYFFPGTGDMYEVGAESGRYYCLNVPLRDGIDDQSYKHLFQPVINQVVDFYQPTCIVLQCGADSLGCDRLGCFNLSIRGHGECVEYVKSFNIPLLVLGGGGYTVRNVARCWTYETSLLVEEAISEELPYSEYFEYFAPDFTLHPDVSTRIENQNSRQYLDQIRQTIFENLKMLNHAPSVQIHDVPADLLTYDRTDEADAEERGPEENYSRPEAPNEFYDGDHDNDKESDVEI
Sequence of HDAC3 (Q9Y618 395-489 partner limits assumed): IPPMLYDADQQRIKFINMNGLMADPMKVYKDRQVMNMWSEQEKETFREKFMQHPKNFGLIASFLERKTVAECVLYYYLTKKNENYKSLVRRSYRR
The target of another assay is T1, HDAC6 (Homo sapiens, UniProt Q9UBN7).
T1 sequence (Q9UBN7 1-1215): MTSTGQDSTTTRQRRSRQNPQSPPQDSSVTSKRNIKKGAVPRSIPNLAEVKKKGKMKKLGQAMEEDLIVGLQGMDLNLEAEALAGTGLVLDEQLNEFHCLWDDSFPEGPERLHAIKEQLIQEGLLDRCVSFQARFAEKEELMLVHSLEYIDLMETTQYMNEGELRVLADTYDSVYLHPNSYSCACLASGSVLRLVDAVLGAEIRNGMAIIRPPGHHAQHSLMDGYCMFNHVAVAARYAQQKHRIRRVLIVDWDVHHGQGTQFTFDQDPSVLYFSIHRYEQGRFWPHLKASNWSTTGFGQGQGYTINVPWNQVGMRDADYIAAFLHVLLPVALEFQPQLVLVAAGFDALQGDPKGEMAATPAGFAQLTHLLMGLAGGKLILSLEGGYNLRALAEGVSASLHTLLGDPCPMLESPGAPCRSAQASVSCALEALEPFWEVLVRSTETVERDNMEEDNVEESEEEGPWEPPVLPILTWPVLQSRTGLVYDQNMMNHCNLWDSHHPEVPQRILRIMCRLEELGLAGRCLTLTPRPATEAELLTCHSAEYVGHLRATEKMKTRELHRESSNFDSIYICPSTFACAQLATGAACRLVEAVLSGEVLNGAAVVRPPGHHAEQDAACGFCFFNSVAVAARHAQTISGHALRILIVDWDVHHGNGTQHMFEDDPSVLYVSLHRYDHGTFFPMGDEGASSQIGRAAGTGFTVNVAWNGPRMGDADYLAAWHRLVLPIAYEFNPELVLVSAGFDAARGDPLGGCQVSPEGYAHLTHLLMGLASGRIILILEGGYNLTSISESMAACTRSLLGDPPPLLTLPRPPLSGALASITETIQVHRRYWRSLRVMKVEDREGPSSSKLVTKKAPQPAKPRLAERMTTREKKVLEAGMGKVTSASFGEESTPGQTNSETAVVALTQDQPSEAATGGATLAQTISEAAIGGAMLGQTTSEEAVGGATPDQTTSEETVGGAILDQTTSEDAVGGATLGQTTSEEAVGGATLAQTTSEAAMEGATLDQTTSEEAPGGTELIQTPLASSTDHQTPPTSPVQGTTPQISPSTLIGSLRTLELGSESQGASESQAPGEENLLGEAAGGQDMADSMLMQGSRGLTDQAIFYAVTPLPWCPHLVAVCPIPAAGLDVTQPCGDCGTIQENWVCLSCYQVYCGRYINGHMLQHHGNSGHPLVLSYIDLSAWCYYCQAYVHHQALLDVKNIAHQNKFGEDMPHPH
As to the kind of experiment: HDAC6 in vitro homogeneous fluorogenic deacetylase assay. It is filed as biochemical. Particulars: read-out: IC50 HDAC6; SD in parentheses; duplicate; substrate MAZ1600 9 µM.

The test system of another assay is MCF7 cells. In words: Propidium iodide staining, cell cycle and cell death in MCF7 cells. It is filed as cell-based. Particulars: 1 µM, 48 hours, PI staining.

Sequence of HDAC1 (Q13547 whole entry): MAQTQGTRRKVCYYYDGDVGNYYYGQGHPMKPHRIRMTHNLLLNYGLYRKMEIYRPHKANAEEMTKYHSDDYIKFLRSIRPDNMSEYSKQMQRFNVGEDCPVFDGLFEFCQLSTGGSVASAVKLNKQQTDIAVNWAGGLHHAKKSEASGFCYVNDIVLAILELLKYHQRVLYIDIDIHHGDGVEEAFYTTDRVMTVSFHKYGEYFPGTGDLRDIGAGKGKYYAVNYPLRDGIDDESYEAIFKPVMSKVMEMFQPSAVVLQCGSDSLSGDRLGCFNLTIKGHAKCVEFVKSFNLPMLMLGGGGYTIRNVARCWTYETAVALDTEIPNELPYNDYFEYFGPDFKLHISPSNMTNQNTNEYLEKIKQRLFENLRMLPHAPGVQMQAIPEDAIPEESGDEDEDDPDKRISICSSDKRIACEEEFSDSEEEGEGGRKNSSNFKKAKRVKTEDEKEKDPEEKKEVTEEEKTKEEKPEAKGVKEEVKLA
Sequence of HDAC2 (Q92769 whole entry): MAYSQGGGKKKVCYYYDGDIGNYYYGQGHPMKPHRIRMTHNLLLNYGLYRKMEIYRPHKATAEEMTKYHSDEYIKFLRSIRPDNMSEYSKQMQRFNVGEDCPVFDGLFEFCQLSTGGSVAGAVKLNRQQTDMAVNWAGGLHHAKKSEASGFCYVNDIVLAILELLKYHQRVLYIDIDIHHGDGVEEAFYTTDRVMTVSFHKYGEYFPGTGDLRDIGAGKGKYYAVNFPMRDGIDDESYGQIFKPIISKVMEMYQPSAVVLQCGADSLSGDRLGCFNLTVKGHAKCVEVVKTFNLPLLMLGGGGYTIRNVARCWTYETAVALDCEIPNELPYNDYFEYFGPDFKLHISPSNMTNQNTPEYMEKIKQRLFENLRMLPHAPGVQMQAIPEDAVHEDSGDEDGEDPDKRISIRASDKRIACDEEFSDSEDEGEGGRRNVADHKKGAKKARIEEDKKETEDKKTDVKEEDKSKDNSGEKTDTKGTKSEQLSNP

The IC50 is the concentration at which inhibition is half-maximal. Consider `O=C(CCCCCCC(=O)N[c-]1cccc1)NO.[Fe+2].c1cc[cH-]c1` [Compound 7, N^1-Hydroxy-N^8-ferrocenyloctanediamide], for which the concentration for half-maximal inhibition (IC50) at HDAC1 is 11 nM; on HDAC2, 11 nM; at HDAC3 it was 18 nM; at HDAC6, 0.8 nM. Further, in the assay on MCF7 cells, the “cell cycle arrest and cell death” value is “induced cell cycle arrest and cell death”.
